Legend:
rats [1] = experiment: Vogel test; format: in vivo; details: i.c.v., b-CD, 10 ug
From the text: The Vogel test is based on the development of a conflict between a highly motivated behavior and an aversion. For this test, the strong motivation is thirst. The animal is water deprived for 12-16 hrs to produce the motivation to drink. During the training period the animals are exposed to the testing environment so they become accustomed to the drinking spout and minimize the fear of a novel environment. Following training, the animals are allowed access to water for 2 hrs. During this time, the animals will drink and eat their normal amount of water and food, compensating for the deprivation time. However, this schedule still produces a strong motivation to drink during the testing period.
Having been deprived of water for twelve to sixteen hours, an animal is placed in a test cage where it is allowed to drink freely for five minutes. This period is used to habituate the animal to the environment and the drinking spout Following the training period, animals have access to water and food in their home cage for 2 hrs. Food is available at all times. Twenty-four hours later, drug is administered to the animal intracerebroventricularly.
After an indicated delay started from the time of injection the animal is again placed in the test cage for ten minutes. A computer counts each time the animal licks, and after every twentieth lick administers a mild electric stimulus across the tongue and/or feet. The electrical stimulus consists of a 0.6 mA current with a duration of 100 msec. This procedure produces a state of conflict for the animal that is reduced by the administration of clinically used anxiolytic agents (i.e., Valium). For dose-response curves, separate groups of animals are injected with increasing doses of test drug and are tested at a predetermined time.

rats [2] = experiment: Geller-Seifter conflict test; format: in vivo, Sprague-Dawley rats
From the text: This animal model of human anxiety utilizes a conditioned state of conflict in rats to ascertain the anxiolytic properties of drugs. Rats are conditioned to bar press for positive reinforcement under two schedules of behavior (Geller and Seifter, Psychopharmacologia 1:482-492 (1960)). The first includes bar pressing under a […] schedule without punishment. The second component is a fixed ratio schedule with each bar press resulting in a positive reinforcement and a punishment. The punished component produces a state of conflict within the animal. […] An anxiolytic response would increase the punished responding without affecting the unpunished responding.
Male albino Sprague-Dawley rats (Charles River Labs, Wilmington, MA) weighing 250-300 g were used for conflict experiments and were kept on a restricted diet of Purina Lab Chow food pellets with water available at all times to maintain body weight at 85% of their free-feeding young adult levels. Rats were housed individually under a 12-hour light-dark cycle with lights on from 0700-1900.
The anti-anxiety (punishment-lessening) and response depressant effects of […] and […] were measured in rats by the conflict test of Geller and Seifter (1960). In this 63-min test, hungry rats perform a lever-press response to obtain a sweetened milk reward. The reinforcement schedule consists of punishment and nonpunishment components, alternating approximately every 15 min. Rats were trained in test chambers (Coulbourn instruments) with a lever mounted in one wall, a small dipper that delivered the 0.1-mL milk reward (1 part Eagle condensed : milk 2 parts water), and a metal grid floor through which the foot-shock punishment was administered. A DEC PDP 11/73 minicomputer running SKED (State Systems) was used for programming and recording.
Rates initially learned to respond on a continuous reinforcement schedule and progressed rapidly to 30-sec, 1-min, and 2-min variable interval (VI) schedules. On the continuous reinforcement schedule, rats received milk reward following every lever press; on the VI schedules, milk rewards were available at infrequent and variable intervals, eventually at an average of once every 2 min. Four 3-min "conflict" periods were then introduced on the unpunished VI baseline; the first started after 3 min of VI performance and the others were alternated between 12-min periods of VI responding. During conflict periods, which were signalled by the presentation of a light and a tone, the continuous reinforcement schedule was again in force and each lever press delivered both a milk reward and a brief ([…]) foot-shock punishment. Shock intensity was 0.2 mA initially, and.was increased daily in increments of 0.02 mA in order to gradually suppress lever pressing to 5 responses or less per conflict period. This training took 4-6 weeks, after which stable low rates of response were observed during conflict periods and stable high rates in the nonpunishment periods. Drug-induced increases in the rate of punished responses were taken as an index of antianxiety activity, while decreases in the rate of unpunished responses were taken as an index of response depression or sedation.

maximal electroshock = maximal electroshock test; format: in vivo, mice; details: Mus musculus, ip, 20% hydroxypropyl-β-cyclodextrin in water
From the text: The anticonvulsant tests are similar to that described above. […]

GR complex = experiment: modulation of [35S]TBPS binding in rat cerebral cortex P2 homogenate; set-up: species or system Sprague-Dawley rats; IMAX: unit not given here
Outline: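 Rat (male Sprague-Dawley) cortical P2 homogenate, 0.5 mg protein, in 50 mM Na/K phosphate pH 7.4, 200 mM NaCl, incubated 90 min at 25° C with 2 nM [35S]TBPS plus GABA and (+)bicuculline, compounds added in DMSO. Filter-bound radioactivity counted; nonspecific binding defined with […].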

[3] = conflict test, subcutaneous administration

## CC(=O)[C@H]1CC[C@H]2[C@@H]3CC[C@H]4C[C@H](O)CC[C@]4(C)[C@H]3CC[C@]12C [3α-hydroxy-5α-pregnan-20-one, reference compound]
Rats [1]
  Vogel (% of control): 431.1 % of control
Rats [2]; [3]
  dose at which the peak effect was observed: 4.4 mg/kg
  rate of punished responses: large increases
Rats [2]; sc, 50% hpbcd, 5 mg/kg
  Geller/Seifter (% of control): 471.8 % of control
Maximal electroshock
  ED50: 28.6 mg/kg
GR complex; concentration of compounds to inhibit 50% of control [35S]TBPS binding, 2 nM [35S]TBPS, 25°C, 90 minutes, no unit printed
  IC50: 37 nM
GR complex; maximum inhibition of [35S]TBPS binding, I* = Inactive
  IMAX: 95

— EP0808325B1, “[…] […] SERIES FOR […] GABA RECEPTOR” (priority 1994, dated 1996)
